Laboratory results as given in patent US9802921B2, “Fluoromethyl-substituted pyrrole carboxamides iv” (Grünenthal GmbH, priority 2013, dated 2017).

Target: T1, Human CaV2.2 channels (Homo sapiens, UniProt Q00975)
T1 construct: expressed in transfected cells
Test: Fluorescent assay for CaV2.2 channels using potassium depolarization to induce channel opening (FLIPR, Fluo 4)
Format: cell-based
Details: read-out: Activity Category: %-Inhib (CaV2.2) @3 μM @30 mM KCl; 3 μM test compound; 30 mM KCl as printed; HEK293 cells stably expressing human CaV2.2
Description: In the process, the Ca^2+ influx is quantified in the FLIPR assay with the aid of a Ca^2+-sensitive dye (type Fluo-4, Molecular Probes Europe BV, Leiden, the Netherlands) in a fluorescent imaging plate reader (FLIPR 3, Molecular Devices, Sunnyvale, USA), as described hereinafter.
Human CaV2.2 channels were stably expressed in HEK293 cells together with alpha2-delta and beta subunits of voltage gated calcium channels. In addition, an inwardly rectifying potassium channel (Kir2.3) was stably expressed in these cells to augment control of the cell membrane potential by the concentration of extracellular potassium ions. Raise of the extracellular potassium concentration leads to depolarization of the membrane potential and thus regulates the voltage dependent state of CaV2.2 channels. For preparation, cells were seeded in black poly-D-lysine coated 96-well plates (Becton Dickinson, Biocoat 4640) in 100 μL medium [500 mL DMEM/F-12 plus Glutamax (Invitrogen 31331-093) plus 5.5 mL MEM NEAA 100× (Invitrogen 11140-035) plus 50 mL FBS decomplemented (Invitrogen 10270-106) plus 200 μg/mL Geneticin (Invitrogen 10131-027) plus 50 μg/mL Hygromycin B (Invitrogen 10687-010) plus 2 μg/mL Blasticidin (anti-bl5b Invivo-Gen) plus 0.2 μg/mL Puromycin (A 11138-03)] at a cell density of 30.000 cells per well. Plates were incubated at 37° C. (5% CO2) for 20 to 23 h. On the day of experiment medium was discarded and cells were loaded with Fluo 4 by addition of 100 μL of basic assay buffer (10 mM HEPES, 1 mM KCl, 149 mM NaCl, 0.8 mM CaCl2, 1.7 mM MgCl2, 10 mM Glucose, 0.1% BSA. pH 7.4) containing 2 μM Fluo 4 (Molecular Probes; F-14201), 0.01% pluronic acid (Molecular Probes; P-6866) and 2.5 mM probenecid (Molecular Probes; P36400). Cells were incubated in the dark at 25° C. for 60 min. Then dye containing buffer was discarded and 100 μL basic (1 mM KCl) or alternative (30 mM KCl) assay buffer was added. The alternative assay buffer contained altered concentrations of KCl (30 mM) and NaCl (120 mM) and was used in order to promote the inactivated channel state. After that 25 μL of basic or alternative assay buffer with or without test compound were added and cells were incubated again in the dark at 25° C. for 15 min. Fluorescence intensity was measured on a FLIPR 3 instrument (Molecular Devices Corp., Sunnyvale, Calif.) with excitation at 480 nm and emission at 535 nm. After continuously reading fluorescence for 30 sec, 50 μL of basic assay buffer containing 210 mM KCl (NaCl omitted) were added for depolarization. Peak fluorescent signal intensity was determined and the amplitude of the peak signal, normalized to base line, was used to measure channel inhibition by test compounds.

T1 sequence (Q00975 whole entry): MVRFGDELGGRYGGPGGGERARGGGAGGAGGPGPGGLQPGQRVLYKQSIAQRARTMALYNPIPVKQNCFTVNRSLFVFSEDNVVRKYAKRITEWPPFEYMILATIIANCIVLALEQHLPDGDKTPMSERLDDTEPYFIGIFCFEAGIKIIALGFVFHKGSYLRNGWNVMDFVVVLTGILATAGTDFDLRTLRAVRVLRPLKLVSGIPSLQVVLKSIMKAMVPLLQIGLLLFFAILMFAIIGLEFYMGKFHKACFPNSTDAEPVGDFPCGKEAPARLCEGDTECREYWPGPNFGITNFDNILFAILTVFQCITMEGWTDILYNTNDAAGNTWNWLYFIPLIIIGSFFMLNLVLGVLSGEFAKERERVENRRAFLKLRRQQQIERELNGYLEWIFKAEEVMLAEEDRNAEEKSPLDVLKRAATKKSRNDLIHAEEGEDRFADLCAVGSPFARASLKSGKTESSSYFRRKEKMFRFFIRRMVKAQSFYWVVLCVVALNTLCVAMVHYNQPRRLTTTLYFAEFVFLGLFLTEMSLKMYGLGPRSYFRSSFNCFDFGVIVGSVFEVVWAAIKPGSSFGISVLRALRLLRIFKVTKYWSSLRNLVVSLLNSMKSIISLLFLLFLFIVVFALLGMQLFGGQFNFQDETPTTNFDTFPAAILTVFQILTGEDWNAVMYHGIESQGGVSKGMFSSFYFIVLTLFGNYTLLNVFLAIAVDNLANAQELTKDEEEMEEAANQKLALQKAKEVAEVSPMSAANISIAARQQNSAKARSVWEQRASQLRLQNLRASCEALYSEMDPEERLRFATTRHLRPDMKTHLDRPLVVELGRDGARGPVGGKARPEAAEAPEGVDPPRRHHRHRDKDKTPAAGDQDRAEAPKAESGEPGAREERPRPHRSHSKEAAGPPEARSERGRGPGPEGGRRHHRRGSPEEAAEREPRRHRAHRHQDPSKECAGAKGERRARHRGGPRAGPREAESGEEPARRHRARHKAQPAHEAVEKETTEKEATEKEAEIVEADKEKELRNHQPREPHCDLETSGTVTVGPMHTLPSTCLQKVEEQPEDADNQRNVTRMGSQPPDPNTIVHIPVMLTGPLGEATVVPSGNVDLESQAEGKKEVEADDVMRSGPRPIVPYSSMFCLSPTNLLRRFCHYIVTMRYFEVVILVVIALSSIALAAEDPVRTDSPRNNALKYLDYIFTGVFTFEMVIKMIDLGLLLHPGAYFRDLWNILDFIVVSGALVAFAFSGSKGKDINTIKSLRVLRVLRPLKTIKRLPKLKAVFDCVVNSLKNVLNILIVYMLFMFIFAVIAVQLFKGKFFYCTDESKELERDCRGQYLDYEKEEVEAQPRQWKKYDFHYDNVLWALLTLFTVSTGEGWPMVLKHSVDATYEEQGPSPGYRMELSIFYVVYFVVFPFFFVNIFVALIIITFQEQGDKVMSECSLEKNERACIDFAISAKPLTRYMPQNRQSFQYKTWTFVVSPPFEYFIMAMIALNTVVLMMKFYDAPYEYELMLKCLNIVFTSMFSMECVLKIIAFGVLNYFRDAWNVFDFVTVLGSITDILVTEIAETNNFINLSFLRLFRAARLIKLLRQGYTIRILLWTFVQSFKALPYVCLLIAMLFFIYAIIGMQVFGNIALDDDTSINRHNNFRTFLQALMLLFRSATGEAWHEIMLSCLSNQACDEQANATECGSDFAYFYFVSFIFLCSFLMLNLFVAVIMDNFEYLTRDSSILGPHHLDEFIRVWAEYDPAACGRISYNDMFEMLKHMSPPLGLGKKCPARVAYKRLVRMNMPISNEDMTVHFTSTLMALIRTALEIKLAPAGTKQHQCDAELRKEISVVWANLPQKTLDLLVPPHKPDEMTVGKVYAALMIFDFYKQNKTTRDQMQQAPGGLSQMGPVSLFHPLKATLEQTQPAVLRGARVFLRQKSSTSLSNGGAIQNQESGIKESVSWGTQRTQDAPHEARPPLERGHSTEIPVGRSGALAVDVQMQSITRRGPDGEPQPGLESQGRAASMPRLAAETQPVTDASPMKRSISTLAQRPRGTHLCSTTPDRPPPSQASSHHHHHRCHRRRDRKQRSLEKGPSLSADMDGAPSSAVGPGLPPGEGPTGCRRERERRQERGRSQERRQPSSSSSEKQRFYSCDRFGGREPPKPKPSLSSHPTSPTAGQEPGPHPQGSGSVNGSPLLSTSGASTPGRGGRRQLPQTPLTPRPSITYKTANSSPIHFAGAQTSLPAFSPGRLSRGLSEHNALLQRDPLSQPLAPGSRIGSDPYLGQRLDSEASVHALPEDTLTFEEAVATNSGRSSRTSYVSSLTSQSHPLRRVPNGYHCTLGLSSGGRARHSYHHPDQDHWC
T1 sequence (P54289 25-1103, further chain): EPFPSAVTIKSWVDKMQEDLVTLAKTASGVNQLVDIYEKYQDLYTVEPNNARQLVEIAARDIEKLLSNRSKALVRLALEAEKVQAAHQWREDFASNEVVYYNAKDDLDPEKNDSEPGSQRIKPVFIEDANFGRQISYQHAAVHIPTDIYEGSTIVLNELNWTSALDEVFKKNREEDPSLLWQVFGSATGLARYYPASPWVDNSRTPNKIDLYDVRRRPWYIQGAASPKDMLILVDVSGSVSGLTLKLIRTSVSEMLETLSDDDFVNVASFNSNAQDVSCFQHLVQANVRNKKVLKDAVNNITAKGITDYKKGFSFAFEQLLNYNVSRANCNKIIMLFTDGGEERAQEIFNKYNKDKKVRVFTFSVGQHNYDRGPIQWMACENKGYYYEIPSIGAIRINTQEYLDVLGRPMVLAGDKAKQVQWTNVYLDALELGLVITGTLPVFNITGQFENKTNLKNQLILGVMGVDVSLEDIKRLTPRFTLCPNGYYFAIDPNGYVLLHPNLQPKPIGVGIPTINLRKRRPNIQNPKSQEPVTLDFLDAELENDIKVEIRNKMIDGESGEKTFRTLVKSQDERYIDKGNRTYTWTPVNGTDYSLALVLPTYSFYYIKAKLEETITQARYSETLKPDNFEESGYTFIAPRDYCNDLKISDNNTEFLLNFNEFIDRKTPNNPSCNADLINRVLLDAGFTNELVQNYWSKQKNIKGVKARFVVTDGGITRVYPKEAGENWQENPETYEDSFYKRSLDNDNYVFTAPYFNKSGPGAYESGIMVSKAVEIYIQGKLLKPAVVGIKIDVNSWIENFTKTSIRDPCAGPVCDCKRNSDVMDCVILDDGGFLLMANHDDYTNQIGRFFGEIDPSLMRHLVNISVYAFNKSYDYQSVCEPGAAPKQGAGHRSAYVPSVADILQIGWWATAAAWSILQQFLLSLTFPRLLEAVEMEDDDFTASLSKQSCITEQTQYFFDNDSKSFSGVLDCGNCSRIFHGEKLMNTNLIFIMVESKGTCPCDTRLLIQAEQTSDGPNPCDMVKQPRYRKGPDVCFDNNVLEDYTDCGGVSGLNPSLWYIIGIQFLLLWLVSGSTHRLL
T1 sequence (P54284 whole entry, further chain): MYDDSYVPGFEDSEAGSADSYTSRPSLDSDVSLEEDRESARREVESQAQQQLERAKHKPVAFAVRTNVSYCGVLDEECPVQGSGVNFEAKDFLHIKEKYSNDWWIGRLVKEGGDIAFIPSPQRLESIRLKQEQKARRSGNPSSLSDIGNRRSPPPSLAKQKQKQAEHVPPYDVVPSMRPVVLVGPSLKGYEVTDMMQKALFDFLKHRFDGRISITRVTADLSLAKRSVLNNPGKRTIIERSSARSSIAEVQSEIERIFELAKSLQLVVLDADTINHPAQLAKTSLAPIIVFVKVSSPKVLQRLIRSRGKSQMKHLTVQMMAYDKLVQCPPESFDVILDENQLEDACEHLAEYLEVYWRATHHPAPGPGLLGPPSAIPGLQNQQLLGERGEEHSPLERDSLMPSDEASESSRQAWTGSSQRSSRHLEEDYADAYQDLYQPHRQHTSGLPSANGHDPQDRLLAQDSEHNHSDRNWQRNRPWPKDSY

| Compound | inhibition at 3 µM [%] |
| --- | --- |
| CN(CC(C)(C)C)C(=O)c1c(-c2ccc(Cl)cc2)cc(C(F)(F)F)n1Cc1ccc(F)cn1 [Example 029, 3-(4-Chlorophenyl)-N-(2,2-dimethyl-propyl)-1-[(5-fluoro-pyridin-2-yl)-methyl]-N-methyl-5-(trifluoromethyl)-1H-pyrrole-2-carboxylic acid amide] | > 95 |
| Cc1cnc(Cn2c(C(F)(F)F)cc(-c3ccc(Cl)cc3)c2C(=O)N(C)CC(C)(C)C)cn1 [Example 030, 3-(4-Chlorophenyl)-N-(2,2-dimethyl-propyl)-N-methyl-1-[(5-methyl-pyrazin-2-yl)-methyl]-5-(trifluoromethyl)-1H-pyrrole-2-carboxylic acid amide] | > 95 |
| CC1(C)CN(C(=O)c2c(-c3ccc(F)cc3)cc(C(F)(F)F)n2Cc2ncccn2)CCO1 [Example 031, (2,2-Dimethyl-morpholin-4-yl)-[3-(4-fluorophenyl)-1-(pyrimidin-2-yl-methyl)-5-(trifluoromethyl)-1H-pyrrol-2-yl]-methanone] | 40 to 75 |
| CN(CC(C)(C)C)C(=O)c1c(-c2ccc(Cl)cc2)cc(C(F)(F)F)n1Cc1ccnc(C(F)(F)F)n1 [Example 033, 3-(4-Chlorophenyl)-N-(2,2-dimethyl-propyl)-N-methyl-5-(trifluoromethyl)-1-[[2-(trifluoromethyl)-pyrimidin-4-yl]-methyl]-1H-pyrrole-2-carboxylic acid amide] | 40 to 75 |
| Cc1ncc(Cn2c(C(F)(F)F)cc(-c3ccc(Cl)cc3)c2C(=O)N(C)CC(C)(C)C)cn1 [Example 034, 3-(4-Chlorophenyl)-N-(2,2-dimethyl-propyl)-N-methyl-1-[(2-methyl-pyrimidin-5-yl)-methyl]-5-(trifluoromethyl)-1H-pyrrole-2-carboxylic acid amide] | 75 to 95 |
| Cc1ccnc(Cn2c(C(F)(F)F)cc(-c3ccc(Cl)cc3)c2C(=O)N(C)CC(C)(C)C)n1 [Example 036, 3-(4-Chlorophenyl)-N-(2,2-dimethyl-propyl)-N-methyl-1-[(4-methyl-pyrimidin-2-yl)-methyl]-5-(trifluoromethyl)-1H-pyrrole-2-carboxylic acid amide] | > 95 |
| CN(CC(C)(C)C)C(=O)c1c(-c2ccc(Cl)cc2)cc(C(F)(F)F)n1Cc1ncccn1 [Example 037, 3-(4-Chlorophenyl)-N-(2,2-dimethyl-propyl)-N-methyl-1-(pyrimidin-2-yl-methyl)-5-(trifluoromethyl)-1H-pyrrole-2-carboxylic acid amide] | > 95 |
| Cc1c(-c2ccc(Cl)cc2)c(C(=O)N(C)CCS(C)(=O)=O)n(Cc2ccc(F)cn2)c1C(F)(F)F [Example 038, 3-(4-Chlorophenyl)-1-[(5-fluoro-pyridin-2-yl)-methyl]-N,4-dimethyl-N-(2-methylsulfonyl-ethyl)-5-(trifluoromethyl)-1H-pyrrole-2-carboxylic acid amide] | > 95 |
| Cc1c(-c2ccc(Cl)cc2)c(C(=O)N(C)CCS(C)(=O)=O)n(Cc2ncccn2)c1C(F)(F)F [Example 039, 3-(4-Chlorophenyl)-N,4-dimethyl-N-(2-methylsulfonyl-ethyl)-1-(pyrimidin-2-yl-methyl)-5-(trifluoromethyl)-1H-pyrrole-2-carboxylic acid amide] | 75 to 95 |
| Cc1c(-c2ccc(Cl)cc2)c(C(=O)N2CCOC(C)(C)C2)n(Cc2ncccn2)c1C(F)(F)F [Example 040, [3-(4-Chlorophenyl)-4-methyl-1-(pyrimidin-2-yl-methyl)-5-(trifluoromethyl)-1H-pyrrol-2-yl]-(2,2-dimethyl-morpholin-4-yl)-methanone] | 75 to 95 |
| COc1cccc(Cn2c(C(=O)N3CCOCC3)c(-c3ccc(Cl)cc3)c(C)c2C(F)(F)F)n1 [Example 041, [3-(4-Chlorophenyl)-1-[(6-methoxy-pyridin-2-yl)-methyl]-4-methyl-5-(trifluoromethyl)-1H-pyrrol-2-yl]-morpholin-4-yl-methanone] | > 95 |
| Cc1cnc(Cn2c(C(=O)N3CCOCC3)c(-c3ccc(Cl)cc3)c(C)c2C(F)(F)F)cn1 [Example 042, [3-(4-Chlorophenyl)-4-methyl-1-[(5-methyl-pyrazin-2-yl)-methyl]-5-(trifluoromethyl)-1H-pyrrol-2-yl]-morpholin-4-yl-methanone] | > 95 |
| Cc1ncc(Cn2c(C(=O)N3CCOCC3)c(-c3ccc(Cl)cc3)c(C)c2C(F)(F)F)cn1 [Example 043, [3-(4-Chlorophenyl)-4-methyl-1-[(2-methyl-pyrimidin-5-yl)-methyl]-5-(trifluoromethyl)-1H-pyrrol-2-yl]-morpholin-4-yl-methanone] | 75 to 95 |
| Cc1c(-c2ccc(Cl)cc2)c(C(=O)N2CCOCC2)n(Cc2ccc(F)cn2)c1C(F)(F)F [Example 044, [3-(4-Chlorophenyl)-1-[(5-fluoro-pyridin-2-yl)-methyl]-4-methyl-5-(trifluoromethyl)-1H-pyrrol-2-yl]-morpholin-4-yl-methanone] | > 95 |
| Cc1cnc(Cn2c(C(=O)N3CCOCC3)c(-c3ccc(Cl)cc3)c(C)c2C(F)(F)F)nc1 [Example 045, [3-(4-Chlorophenyl)-4-methyl-1-[(5-methyl-pyrimidin-2-yl)-methyl]-5-(trifluoromethyl)-1H-pyrrol-2-yl]-morpholin-4-yl-methanone] | > 95 |
| Cc1ccnc(Cn2c(C(=O)N3CCOCC3)c(-c3ccc(Cl)cc3)c(C)c2C(F)(F)F)n1 [Example 046, [3-(4-Chlorophenyl)-4-methyl-1-[(4-methyl-pyrimidin-2-yl)-methyl]-5-(trifluoromethyl)-1H-pyrrol-2-yl]-morpholin-4-yl-methanone] | > 95 |
| Cc1c(-c2ccc(Cl)cc2)c(C(=O)N2CCOCC2)n(Cc2ncccn2)c1C(F)(F)F [Example 047, [3-(4-Chlorophenyl)-4-methyl-1-(pyrimidin-2-yl-methyl)-5-(trifluoromethyl)-1H-pyrrol-2-yl]-morpholin-4-yl-methanone] | > 95 |
| Cc1c(-c2ccc(Cl)cc2)c(C(=O)NC2CC2)n(Cc2ncccn2)c1C(F)(F)F [Example 048, 3-(4-Chlorophenyl)-N-cyclopropyl-4-methyl-1-(pyrimidin-2-yl-methyl)-5-(trifluoromethyl)-1H-pyrrole-2-carboxylic acid amide] | 40 to 75 |
| Cc1c(-c2ccc(Cl)cc2)c(C(=O)N(C)CC(C)(C)C)n(-c2cnccn2)c1C(F)(F)F [Example 049, 3-(4-Chlorophenyl)-N-(2,2-dimethyl-propyl)-N,4-dimethyl-1-pyrazin-2-yl-5-(trifluoromethyl)-1H-pyrrole-2-carboxylic acid amide] | 75 to 95 |
| Cc1c(-c2ccc(Cl)cc2)c(C(=O)N2CC(F)(F)C2)n(-c2cnccn2)c1C(F)(F)F [Example 050, [3-(4-Chlorophenyl)-4-methyl-1-pyrazin-2-yl-5-(trifluoromethyl)-1H-pyrrol-2-yl]-(3,3-difluoro-azetidin-1-yl)-methanone] | 75 to 95 |
| Cc1c(-c2ccc(Cl)cc2)c(C(=O)N2CC(C)(O)C2)n(-c2cnccn2)c1C(F)(F)F [Example 051, [3-(4-Chlorophenyl)-4-methyl-1-pyrazin-2-yl-5-(trifluoromethyl)-1H-pyrrol-2-yl]-(3-hydroxy-3-methyl-azetidin-1-yl)-methanone] | 40 to 75 |
| Cc1c(-c2ccc(Cl)cc2)c(C(=O)N2CCOCC2)n(Cc2cncnc2)c1C(F)(F)F [Example 052, [3-(4-Chlorophenyl)-4-methyl-1-(pyrimidin-5-yl-methyl)-5-(trifluoromethyl)-1H-pyrrol-2-yl]-morpholin-4-yl-methanone] | 40 to 75 |
| Cc1c(-c2ccc(Cl)cc2)c(C(=O)N2CCOCC2)n(Cc2ccc[nH]c2=O)c1C(F)(F)F [Example 053, 3-[[3-(4-Chlorophenyl)-4-methyl-2-(morpholine-4-carbonyl)-5-(trifluoromethyl)-1H-pyrrol-1-yl]-methyl]-1H-pyridin-2-one] | 40 to 75 |
| Cc1c(-c2ccc(Cl)cc2)c(C(=O)N2CCOCC2)n(Cc2cccc(=O)[nH]2)c1C(F)(F)F [Example 054, 6-[[3-(4-Chlorophenyl)-4-methyl-2-(morpholine-4-carbonyl)-5-(trifluoromethyl)-1H-pyrrol-1-yl]-methyl]-1H-pyridin-2-one] | 75 to 95 |
